Source: PMC12933330, “Data-Driven Design of PROTAC Linkers to Improve PROTAC Cell Membrane Permeability” (JACS Au, 2026)

Legend:
Caco-2 cell membranes = test system: Caco-2 cell membranes; set-up: method as in PROTAC-DB 3.0; details: Caco-2 A-to-B; as recorded in PROTAC-DB 3.0; ref PROTAC-DB 3.0; cited from earlier work
[1] = Caco-2 cell membrane permeability study (transcellular transport, A-to-B); assay type: in vitro ADME; details: human; Caco-2, apical to basal, 10 μM compound, 2 h, 37 °C, 4% BSA in basal compartment; read-out: Ex. value, cell membrane permeability (Papp, AtoB)
Protocol: (§1) KT-474 (Catalog No. E1655), NX-2127 (Catalog No. E1381), MS4078 (Catalog No. S0072), dBET6 (Catalog No. S8762), and dBET57 (Catalog No. S0137) were purchased from Selleck Chemicals (Houston, TX, USA). […] The Caco-2 cell permeability assay using these PROTACs was outsourced to Axcelead Drug Discovery Partners, Inc. (Kanagawa, Japan). Caco-2 cells (American Type Culture Collection, Manassas, VA, USA) were cultured, and a transcellular transport study was performed. The cells were cultured in Transwell 96-well permeable support (pore size 0.4 μm, 0.11 cm^2 surface area) with a polycarbonate membrane (PSHT004S5, Millipore Corporation, Bedford, MA, USA). The cells were preincubated with bovine serum albumin (BSA)-free Hank’s balanced salt solution (HBSS) in the apical compartment (75 μL) and HBSS containing 4% BSA in the basal compartment (250 μL) for 10 min at 37 °C. Subsequently, transcellular transport was initiated by the addition of BSA-free HBSS to apical compartments containing 10 μM compounds. The assay was terminated by separating each assay plate after 2 h. Aliquots (50 μL) from the basolateral compartment were mixed with acetonitrile/methanol. After centrifugation, the compound concentrations in the supernatant were measured using liquid chromatography-tandem mass spectrometry (LC–MS/MS) and a Kinetex C18 column (2.6 μm, 2.1 × 30 mm). The apparent permeabilities (P app, AtoB) of the receivers were determined. Lucifer yellow was added onto the apical compartment at a concentration of 100 μM. The P app of lucifer yellow in the wells where each test compound was evaluated was reported. The P app value of each compound in the membrane permeability test was calculated from a one-point standard curve (0.1 μM) using the following equation. Papp=C×V/T×A×C0 where C (μM) is the concentration of the test compound on the basal side after incubation (measured value); V (mL) is the volume of the basolateral compartment (0.25 mL); T (s) is the permeation experiment time (7200 s); A (cm^2) is the membrane area (0.11 cm^2); and C0 (μM) is the concentration of test compound (measured value).

Caco-2 cells = experiment: as above; assay type: in vitro ADME; details: Caco-2, A-to-B
Protocol: as §1

| Papp A→B at 2 h, 10 μM [1] | Compound | experimental value of the cell membrane permeability (Caco-2 cell membranes) | cell membrane permeability, result in words (Caco-2 cells) |
| --- | --- | --- | --- |
| 0.52 ×10⁻⁶ cm/s | Cc1sc2c(c1C)C(c1ccc(Cl)cc1)=NC(CC(=O)NCCNc1cccc3c1C(=O)N(C1CCC(=O)NC1=O)C3=O)c1nnc(C)n1-2 (stereo not drawn) [dBET57] | – | relatively high cell membrane permeability |
| 0.11 ×10⁻⁶ cm/s | NC(=O)c1ncc(N2CCCCC2)nc1Nc1ccc(C2CCN(C[C@H]3CCN(c4ccc5c(c4)C(=O)N(C4CCC(=O)NC4=O)C5=O)C3)CC2)cc1 (stereo partly drawn) [NX-2127] | – | – |
| 0.99 ×10⁻⁶ cm/s | Cc1sc2c(c1C)C(c1ccc(Cl)cc1)=NC(CC(=O)NCCCCCCCCNC(=O)COc1cccc3c1C(=O)N(C1CCC(=O)NC1=O)C3=O)c1nnc(C)n1-2 (stereo not drawn) [dBET6] | – | relatively high cell membrane permeability |

Further lines, the compound ahead of its results:

| Compound | Papp A→B at 2 h, 10 μM [1] | experimental value of the cell membrane permeability (Caco-2 cell membranes) | cell membrane permeability, result in words (Caco-2 cells) |
| --- | --- | --- | --- |
| Cc1sc2c(c1C)C(c1ccc(Cl)cc1)=NC(CC(=O)NCc1cn(CCCCNC(=O)COc3ccc(C4CCC(=O)NC4=O)cc3)nn1)c1nnc(C)n1-2 (stereo not drawn) [Compound 2895] | – | 2.14 μcm/s | – |
| Cc1cc(Nc2ncc(Cl)c(Nc3ccccc3S(=O)(=O)C(C)C)n2)c(OC(C)C)cc1C1CCN(CC(=O)NCCNc2cccc3c2C(=O)N(C2CCC(=O)NC2=O)C3=O)CC1 (stereo not drawn) [MS4078] | 0.06 ×10⁻⁶ cm/s | – | – |
| Cn1c(=O)n(C2CCC(=O)NC2=O)c2cccc(C#CCOC3CCN(C[C@H]4CC[C@H](n5cc(NC(=O)c6cnn7ccc(N8C[C@H]9C[C@@H]8CO9)nc67)c(C(F)F)n5)CC4)CC3)c21 (stereo partly drawn) [KT-474] | 1.26 ×10⁻⁶ cm/s | – | relatively high cell membrane permeability |
